One assay addresses EZH1 (Homo sapiens, UniProt Q92800). Nature of the assay: AlphaLISA evaluation of inhibitory activity against EZH1. Type of assay: biochemical. As to conditions: test material 10 nM; DMSO control. How it is done: (§1) In order to confirm the EZH1 and/or EZH2 activity inhibitory effect of the 1,3-benzodioxole derivative compounds represented by chemical formula I of the present invention, the activity was measured using an AlphaLISA test method.
(§2) The test material dissolved in dimethylsulfoxide (DMSO) was diluted in a test solution (20 mM Tris pH 8.0, 0.1% BSA, 0.01% Triton X-100, 0.5 mM DTT) according to a final treatment concentration (5 nM or 10 nM), mixed with EZH1 and EZH2, respectively, and then added with histone H3 peptide and S-adenosylmethionine (SAM) to initiate an enzyme reaction. An acceptor bead was added thereto after reaction for two hours and subjected to an additional reaction for one hour, after which a donor bead was added thereto. After an additional reaction for 30 minutes, the reaction was completed. Activity was measured using the Magellan program on a Spark10M instrument. DMSO was used as a control group, an inhibition rate of enzyme activity was calculated using the following equation, and the results thereof are shown in Table 1 below.
(§3) Activity inhibition rate (%)=(1−(Group treated with test material/Control group))*100

The target in another assay is EZH2 (Homo sapiens, UniProt Q15910). The experiment in a line: AlphaLISA evaluation of inhibitory activity against EZH2. In kind it is biochemical. As to conditions: DMSO control. As for the experimental part:
as §1, §2, §3
In general terms: Alpha assays give light when donor and acceptor beads are brought close together.

Assay [1] deals with Pfeiffer cells, lymphoma cells having EZH2 mutation (A677G). The experiment in a line: Proliferation inhibition of cells of hematologic malignancies (CCK-8, 11 days). Type of assay: cell-based. As to conditions: Homo sapiens, Pfeiffer, 264 h, 11 days culture, read-out: Cell proliferation inhibitory effect (IC50). In outline: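 Pfeiffer lymphoma cells (EZH2 A677G) in RPMI1640 with 10% FBS were seeded at 10,000 cells/well and exposed to test material for 11 days, with compound replaced every 3–4 days. Viability was read by CCK-8 absorbance at 450 nm, and IC50 was derived by non-linear regression curve fitting.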

Results on one molecule are retold here after patent publication US20250059180A1 (DONG WHA PHARM. CO., LTD., priority 2022, published 2025).

pIC50: −log10 of the molar value.

Chain of EZH2 (Q15910 whole entry): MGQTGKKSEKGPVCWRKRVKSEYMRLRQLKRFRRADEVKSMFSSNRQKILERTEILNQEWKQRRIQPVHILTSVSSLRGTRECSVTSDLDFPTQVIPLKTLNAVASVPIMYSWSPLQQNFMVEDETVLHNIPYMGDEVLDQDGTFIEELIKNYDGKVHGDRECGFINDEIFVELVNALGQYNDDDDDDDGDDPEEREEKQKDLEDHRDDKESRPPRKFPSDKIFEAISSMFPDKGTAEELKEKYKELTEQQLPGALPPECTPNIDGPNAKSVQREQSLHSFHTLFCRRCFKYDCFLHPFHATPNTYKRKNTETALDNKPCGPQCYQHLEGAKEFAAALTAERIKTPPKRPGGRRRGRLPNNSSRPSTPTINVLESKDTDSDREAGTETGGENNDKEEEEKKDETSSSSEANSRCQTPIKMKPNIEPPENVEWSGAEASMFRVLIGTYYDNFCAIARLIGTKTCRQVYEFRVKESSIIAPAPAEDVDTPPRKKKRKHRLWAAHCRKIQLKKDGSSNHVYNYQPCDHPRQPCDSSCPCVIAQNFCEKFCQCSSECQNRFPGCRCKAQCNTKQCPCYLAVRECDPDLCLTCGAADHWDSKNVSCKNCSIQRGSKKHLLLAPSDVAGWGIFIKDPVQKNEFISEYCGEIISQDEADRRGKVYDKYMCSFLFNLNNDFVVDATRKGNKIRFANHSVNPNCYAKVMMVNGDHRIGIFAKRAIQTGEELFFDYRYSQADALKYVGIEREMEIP
Chain of EZH2 (O75530 whole entry partner): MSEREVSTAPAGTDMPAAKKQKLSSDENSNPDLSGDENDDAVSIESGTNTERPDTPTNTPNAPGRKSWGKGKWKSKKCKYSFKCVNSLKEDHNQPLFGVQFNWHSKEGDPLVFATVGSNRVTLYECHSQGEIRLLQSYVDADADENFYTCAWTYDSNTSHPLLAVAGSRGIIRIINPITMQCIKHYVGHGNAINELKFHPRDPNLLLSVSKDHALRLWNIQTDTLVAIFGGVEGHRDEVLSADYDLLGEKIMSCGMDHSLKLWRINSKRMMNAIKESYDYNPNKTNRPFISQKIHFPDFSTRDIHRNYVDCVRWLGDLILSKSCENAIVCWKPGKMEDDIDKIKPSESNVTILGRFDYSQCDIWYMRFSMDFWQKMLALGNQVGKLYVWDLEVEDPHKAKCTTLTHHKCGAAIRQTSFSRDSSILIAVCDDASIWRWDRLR
Chain of EZH2 (Q15022 whole entry partner): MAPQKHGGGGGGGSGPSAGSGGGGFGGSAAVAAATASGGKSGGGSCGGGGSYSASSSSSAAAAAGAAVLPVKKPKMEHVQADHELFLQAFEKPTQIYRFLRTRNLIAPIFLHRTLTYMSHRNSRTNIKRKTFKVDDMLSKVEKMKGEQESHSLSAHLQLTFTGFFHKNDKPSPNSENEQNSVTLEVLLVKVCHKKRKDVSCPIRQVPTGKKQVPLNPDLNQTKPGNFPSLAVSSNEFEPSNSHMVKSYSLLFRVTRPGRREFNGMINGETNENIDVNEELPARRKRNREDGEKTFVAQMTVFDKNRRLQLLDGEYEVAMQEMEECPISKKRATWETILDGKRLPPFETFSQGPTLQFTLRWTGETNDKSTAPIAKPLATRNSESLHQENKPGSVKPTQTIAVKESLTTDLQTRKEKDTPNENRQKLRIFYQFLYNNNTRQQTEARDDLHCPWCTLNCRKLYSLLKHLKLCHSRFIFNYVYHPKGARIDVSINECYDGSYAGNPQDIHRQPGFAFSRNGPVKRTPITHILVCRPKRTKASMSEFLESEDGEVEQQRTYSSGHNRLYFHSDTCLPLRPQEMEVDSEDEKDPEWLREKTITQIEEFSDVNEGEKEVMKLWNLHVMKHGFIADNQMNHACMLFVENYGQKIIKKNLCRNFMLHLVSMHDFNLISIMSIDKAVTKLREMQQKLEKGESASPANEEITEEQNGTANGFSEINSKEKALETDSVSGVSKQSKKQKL
Chain of EZH1 (Q92800 whole entry): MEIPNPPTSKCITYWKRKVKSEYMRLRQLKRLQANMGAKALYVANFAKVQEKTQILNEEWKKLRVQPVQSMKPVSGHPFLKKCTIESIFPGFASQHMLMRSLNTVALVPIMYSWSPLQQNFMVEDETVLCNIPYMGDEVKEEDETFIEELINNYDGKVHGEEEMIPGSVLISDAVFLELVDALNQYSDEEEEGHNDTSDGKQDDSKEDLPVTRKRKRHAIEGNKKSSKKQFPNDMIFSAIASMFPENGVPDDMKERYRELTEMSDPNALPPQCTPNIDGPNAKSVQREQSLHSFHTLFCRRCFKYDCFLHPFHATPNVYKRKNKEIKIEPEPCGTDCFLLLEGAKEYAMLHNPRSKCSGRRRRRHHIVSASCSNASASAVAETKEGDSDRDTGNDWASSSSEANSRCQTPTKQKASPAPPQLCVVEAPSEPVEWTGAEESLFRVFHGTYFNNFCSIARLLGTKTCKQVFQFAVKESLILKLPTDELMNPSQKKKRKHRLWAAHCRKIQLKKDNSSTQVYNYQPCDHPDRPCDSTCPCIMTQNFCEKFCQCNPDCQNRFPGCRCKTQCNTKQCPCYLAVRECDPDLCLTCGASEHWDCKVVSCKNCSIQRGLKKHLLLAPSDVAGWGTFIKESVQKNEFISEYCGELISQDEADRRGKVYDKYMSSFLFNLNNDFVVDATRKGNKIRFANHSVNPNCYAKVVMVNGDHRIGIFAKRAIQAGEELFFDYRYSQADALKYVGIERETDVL
Chain of EZH1 (O75530 whole entry partner): as the sequence (O75530 whole entry partner) above
Chain of EZH1 (Q15022 whole entry partner): as the sequence (Q15022 whole entry partner) above

In the case of `CSc1cc(C)[nH]c(=O)c1CNC(=O)c1cc(-c2ccc(N3C[C@@H](C)O[C@@H](C)C3)nc2)c2c(c1C)OC(C)([C@H]1CC[C@H](N3CC(OCCCC(F)(F)F)C3)CC1)O2` (stereo partly shown) [Compound 104], the “Enzyme inhibition % EZH1 10 nM” value at EZH1 is on record as 19.9%. Moreover, at EZH2 (test material 5 nM), the “Enzyme inhibition % EZH2 5 nM” value was 37.0%. Moreover, the “Enzyme inhibition % EZH2 10 nM” value on EZH2 (test material 10 nM) was 82.6%. Also, the pIC50 in assay [1] is no less than 8.00.
